Data taken from patent US20080261936A1, “METHODS OF REDUCING THE BODY WEIGHT OF A SUBJECT BY ADMINISTERING A FATTY ACID ESTER OF AN ESTROGEN OR ESTROGEN DERIVATIVE IN AN OIL AND COMPOSITIONS CONTAINING THE SAME” (Manhattan Pharmaceuticals, Inc., priority 2006, published 2008).
Values joined by “and” are separate entries in the source; they are usually repeats but may differ in a detail not shown here. Equal entries are not always repeated.

Experiment: Compatibility/stability of oleoyl-estrone in oil systems (appearance/color, potency, related substances)
Assay type: physicochemical
Experimental: The compatibility of oleoyl-estrone in various oil systems was also assessed. The respective stability of oleoyl-estrone in various oils was assessed following storage at (A) 25° C./60% and relative humidity (RH), (B) 40° C./75% RH, (C) 50° C. and (D) 60° C. in canola oil, safflower oil, Captex and a 2:1 Captex: Labrafil mixture. The stability test methods include appearance/color, potency, and related substances (e.g. impurities or degradant in the oleoyl-estrone and oil mixture).

[1] = in CANOLA, Three Weeks 25° C./60% RH
[2] = in CANOLA, Three Weeks 40° C./75% RH
[3] = in CANOLA, Two Weeks 25° C./60% RH
[4] = in CANOLA, Two Weeks 40° C./75% RH
[5] = in CAPTEX, One Week 25° C./60% RH
[6] = in CAPTEX, One Week 40° C./75% RH
[7] = in CAPTEX, Three Weeks 25° C./60% RH
[8] = in CAPTEX, Three Weeks 40° C./75% RH
[9] = in CAPTEX, Two Weeks 25° C./60% RH
[10] = in CAPTEX, Two Weeks 40° C./75% RH
[11] = in SAFFLOWER, One Week 25° C./60% RH
[12] = in SAFFLOWER, One Week 40° C./75% RH
[13] = in SAFFLOWER, Three Weeks 25° C./60% RH
[14] = in SAFFLOWER, Three Weeks 40° C./75% RH
[15] = in SAFFLOWER, Three Weeks 50° C.
[16] = in SAFFLOWER, Three Weeks 60° C.
[17] = in SAFFLOWER, Two Weeks 25° C./60% RH
[18] = in SAFFLOWER, Two Weeks 40° C./75% RH
[19] = in the mixture of Captex and Labrafil stored at 50° C. and 60° C., three weeks

CCCCCCCC/C=C\CCCCCCCC(=O)Oc1ccc2c(c1)CC[C@@H]1[C@@H]2CC[C@]2(C)C(=O)CC[C@@H]12 [oleoyl-estrone, [3(Z)]-3-[(1-oxo-9-octadecenyl)oxy]-estra-1,3,5(10)-trien-17-one]
Mean Purity Assay [1]: 96.5%
Purity Assay [1]: 95.3% and 97.7%
Mean Purity Assay [2]: 98.4%
Purity Assay [2]: 94.6% and 102.2%
Mean Purity Assay (in CANOLA, Three Weeks 50° C.): 99.4%
Purity Assay (in CANOLA, Three Weeks 50° C.): 100.2% and 98.5%
Mean Purity Assay (in CANOLA, Three Weeks 60° C.): 99.8%
Purity Assay (in CANOLA, Three Weeks 60° C.): 100.4% and 99.1%
Mean Purity Assay (in CANOLA, Time Zero): 98.1%
Purity Assay (in CANOLA, Time Zero): 97.5% and 98.0% and 97.8% and 98.9%
Mean Purity Assay [3]: 96.4%
Purity Assay [3]: 92.5% and 100.3%
Mean Purity Assay [4]: 99.0%
Purity Assay [4]: 98.2% and 99.8%
Mean Purity Assay (in CANOLA, Two Weeks 50° C.): 98.2%
Purity Assay (in CANOLA, Two Weeks 50° C.): 100.2% and 96.2%
Mean Purity Assay (in CANOLA, Two Weeks 60° C.): 97.3%
Purity Assay (in CANOLA, Two Weeks 60° C.): 96.7% and 97.9%
Mean Purity Assay [5]: 105.2%
Purity Assay [5]: 102.0% and 108.3%
Mean Purity Assay [6]: 103.6%
Purity Assay [6]: 105.2% and 101.9%
Mean Purity Assay (in CAPTEX, One Week 50° C.): 101.2%
Purity Assay (in CAPTEX, One Week 50° C.): 99.5% and 102.9%
Mean Purity Assay (in CAPTEX, One Week 60° C.): 101.9%
Purity Assay (in CAPTEX, One Week 60° C.): 101.5% and 102.3%
Mean Purity Assay [7]: 99.5%
Purity Assay [7]: 100.4% and 98.5%
Mean Purity Assay [8]: 99.1%
Purity Assay [8]: 99.4% and 98.8%
Mean Purity Assay (in CAPTEX, Three Weeks 50° C.): 106.5%
Purity Assay (in CAPTEX, Three Weeks 50° C.): 107.1% and 105.9%
Mean Purity Assay (in CAPTEX, Three Weeks 60° C.): 103.0%
Purity Assay (in CAPTEX, Three Weeks 60° C.): 100.7% and 105.3%
Mean Purity Assay (in CAPTEX, Time Zero): 105.4%
Purity Assay (in CAPTEX, Time Zero): 105.6% and 105.3% and 104.1% and 106.4%
Mean Purity Assay [9]: 102.8%
Purity Assay [9]: 104.8% and 100.8%
Mean Purity Assay [10]: 96.4%
Purity Assay [10]: 98.5% and 94.3%
Mean Purity Assay (in CAPTEX, Two Weeks 50° C.): 97.9%
Purity Assay (in CAPTEX, Two Weeks 50° C.): 96.5% and 99.3%
Mean Purity Assay (in CAPTEX, Two Weeks 60° C.): 102.4%
Purity Assay (in CAPTEX, Two Weeks 60° C.): 105.6% and 99.1%
Mean Purity Assay [11]: 99.1%
Purity Assay [11]: 99.4% and 98.7%
Mean Purity Assay [12]: 100.9%
Purity Assay [12]: 102.6% and 99.2%
Mean Purity Assay (in SAFFLOWER, One Week 50° C.): 100.7%
Purity Assay (in SAFFLOWER, One Week 50° C.): 100.9% and 100.4%
Mean Purity Assay (in SAFFLOWER, One Week 60° C.): 100.8%
Purity Assay (in SAFFLOWER, One Week 60° C.): 99.5% and 102.0%
Mean Purity Assay [13]: 105.7%
Purity Assay [13]: 108.1% and 103.3%
Mean Purity Assay [14]: 104.6%
Purity Assay [14]: 102.7% and 106.5%
Mean Purity Assay [15]: 98.7%
Purity Assay [15]: 101.0% and 96.4%
Mean Purity Assay [16]: 105.1%
Purity Assay [16]: 103.7% and 106.5%
Mean Purity Assay (in SAFFLOWER, Time Zero): 103.8%
Purity Assay (in SAFFLOWER, Time Zero): 102.1% and 104.8% and 104.7% and 103.5%
Mean Purity Assay [17]: 101.6%
Purity Assay [17]: 105.1% and 98.1%
Mean Purity Assay [18]: 100.2%
Purity Assay [18]: 98.1% and 102.3%
Mean Purity Assay (in SAFFLOWER, Two Weeks 50° C.): 96.7%
Purity Assay (in SAFFLOWER, Two Weeks 50° C.): 98.3% and 95.1%
Mean Purity Assay (in SAFFLOWER, Two Weeks 60° C.): 98.1%
Purity Assay (in SAFFLOWER, Two Weeks 60° C.): 99.2% and 96.9%
Degradation of oleoyl-estrone (in canola oil, safflower oil or Captex, three weeks at 25° C./60% RH, 40° C./75% RH, 50° C. and 60° C.): no measurable degradation
Degradation of oleoyl-estrone [19]: measurable degradation
Levels of estrone [19]: increased significantly
